Source: patent publication US6699861B1, “Anti-quinazoline compounds” (Cancer Research Technology Limited, priority 1999, dated 2004)
“And” between values parts separate entries of the source, which are not always exact repeats. Equal values may be shown once. Read-outs that look alike come from different tables or passages of the source.

Legend:
[1] = tested on: W1L2:R865 cell line; assay: Growth inhibition of W1L2:R865 cells (acquired resistance to CB 30865); assay type: cell-based, human
Experimental: A cell line was raised with acquired resistance to CB 30865, denoted W1L2:R865, by stepwise selection over ˜9 months.
The generated W1L2:R865 cell line was routinely cultured in 0.03 μm CB 30865 under the same conditions as W1L2 cells, with cells being grown in the absence of CB 30865 for ˜2 weeks before an experiment.
The activity of compounds against W1L2:R865 cells was determined within parallel experiments by 72 h growth inhibition assay (Coulter counts). CB 30865 was included in every experiment as an internal control.

[2] = tested on: W1L2 human lymphoblastoid cells; assay: Growth inhibition of W1L2 cells; assay type: cell-based; conditions: W1L2 suspension cells, read-out: Inhibition of Cell Growth IC50, W1L2 (B)
[3] = molecular target: mouse thymidylate synthase (TS) (Mus musculus, UniProt P07607); assay: Inhibition of L1210 thymidylate synthase (TS)
[4] = tested on: W1L2 cells; assay: Growth inhibition of W1L2 in presence of folate metabolites (dThd/HX); assay type: cell-based, human; conditions: in the presence of 10 μM thymidine (dThd) and 50 μM hypoxantine (HX), read-out: Inhibition of Cell Growth IC50, W1L2 + dThd/HX (C)
Experimental: Growth inhibition assays as described above were performed in W1L2 cells where compounds were incubated in the presence of 10 μM thymidine (dThd) and 50 μM hypoxantine (HX) (purchased from Sigma Chemical Co.).

[5] = tested on: W1L2:C1 cells; assay: Growth inhibition of W1L2:C1 cells (elevated TS); assay type: cell-based, human; conditions: read-out: Inhibition of Cell Growth IC50, W1L2:C1 (B)
Experimental: W1L2 human lymphoblastoid, W1L2:C1 (elevated TS; O'Connor et al, Cancer Res, 52, 1137-1143 (1992)) and L1210 mouse leukaemia cells were cultured in suspension and A2780, PXN94, 41M, HX62, SKOV3 (human ovarian carcinoma), MCF-7 (human breast carcinoma), HT29 and SW480 (human colon carcinoma) cell lines were grown as monolayers as described in Jackman et al, Cancer Res, 50, 5212-5218 (1990) and Jackman et al, Br. J. Cancer, 71, 914-924 (1995).
Growth inhibition studies with suspension cells were performed as described in Jackman et al, Cancer Res, 50, 5212-5218 (1990). Activity against the adherent cell lines was assessed by MTT assay (Twentyman et al, Br. J. Cancer, 56, 279-285 (1987)) where cells were seeded in 96-well plates at 1000-3000 cells per well, incubated overnight and then exposed to the appropriate drug concentrations for 96-120 h.

[6] = Homo sapiens, 72 h, read-out: Inhibition of Cell Growth IC50, W1L2:R865 (D), 72 h growth inhibition assay (Coulter counts)
[7] = Homo sapiens, Lymphoblastoid cell
[8] = Homo sapiens, 72 h growth inhibition assay (Coulter counts), read-out: Inhibition of Cell Growth IC50, W1L2:R865 (D)
[9] = 72 h growth inhibition assay (Coulter counts), read-out: Inhibition of Cell Growth IC50, W1L2:R865 (D)
[10] = read-out: Inhibition of Cell Growth IC50, W1L2:R865 (D), 72 h growth inhibition assay (Coulter counts)

Chain of mouse thymidylate synthase (TS) (P07607 whole entry): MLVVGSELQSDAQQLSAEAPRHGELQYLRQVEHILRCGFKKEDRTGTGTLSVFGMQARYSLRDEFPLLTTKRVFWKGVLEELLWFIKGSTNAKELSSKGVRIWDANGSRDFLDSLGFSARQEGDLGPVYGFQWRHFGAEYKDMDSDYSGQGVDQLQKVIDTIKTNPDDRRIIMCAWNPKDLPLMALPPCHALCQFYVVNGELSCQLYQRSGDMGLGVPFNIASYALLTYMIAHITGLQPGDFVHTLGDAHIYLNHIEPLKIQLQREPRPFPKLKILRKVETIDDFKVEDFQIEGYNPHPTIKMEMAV

Row | Compound | IC50 [1, 6] | IC50 [2, 7] | melting point | IC50 ([5]; Homo sapiens) | also measured
1 | C#CCN(Cc1cc2c(=O)n(C)c(CN3CCCCC3)nc2cc1Cl)c1ccc(C(=O)NCc2cccnc2)cc1 [CB300923, 4-[N-[7-Chloro-3-methyl-4-oxo-2-piperidinomethyl-3,4-dihydroquinazolin-6-ylmethyl]-N-(prop-2-ynyl)amino]-N-(3-pyridylmethyl)benzamide] | 14000 nM | 0.8 nM | 148 to 150 °C | – | Inhibition of L1210 TS (A) IRP* (inverse relative potency) [3]: >4211; IC50 ([4]; Homo sapiens): 0.78 nM
2 | C#CCN(Cc1cc2c(=O)n(C)c(CN3CCN(c4ccccc4)CC3)nc2cc1Cl)c1ccc(C(=O)NCc2cccnc2)cc1 [CB300934, 4-[N-[7-Chloro-3-methyl-4-oxo-2-(4-phenylpiperazin-1-yl)methyl-3,4-dihydroquinazolin-6-ylmethyl]-N-(prop-2-ynyl)amino]-N-(3-pyridylmethyl)benzamide] | 940 nM | 7.2 nM | 214 to 216 °C | 5.4 nM | –
3 | C#CCN(Cc1cc2c(=O)n(CCN(C)C)c(CN3CCCCC3)nc2cc1Cl)c1ccc(C(=O)NCc2cccnc2)cc1 [CB300933, 4-[N-[7-Chloro-3-(2-dimethylaminoethyl)-4-oxo-2-piperidin-1-ylmethyl-3,4-dihydroquinazolin-6-ylmethyl]-N-(prop-2-ynyl)amino]-N-(3-pyridylmethyl)benzamide] | 7200 nM | 2.9 nM | 90 to 93 °C | 2.8 nM | –
4 | C#CCN(Cc1cc2c(=O)n(C)c(CN3CCC(O)CC3)nc2cc1Cl)c1ccc(C(=O)NCc2cccnc2)cc1 [CB300939, 4-[N-[7-Chloro3-methyl-2-(4-hydroxypiperidin-1-yl)methyl-4-oxo-3,4-dihydroquinazolin-6ylmethyl]-N-(prop-2-ynyl)amino]-N-(3-pyridylmethyl)benzamide] | 18000 nM | 0.72 nM | – | 0.7 nM | –
5 | C#CCN(c1ccc(C(=O)NCc2cccnc2)cc1)C1CCc2cc3cc(C)n(C)c(=O)c3cc21 (centres unmarked) [CB300847, reference compound] | – | 6.5 ± 1.7 nM | – | 2.7 nM | IC50 [1, 8]: 2500 nM
6 | C#CCN(Cc1cc2c(=O)n(C)c(CN3CCOCC3)nc2cc1Cl)c1ccc(C(=O)NCc2cccnc2)cc1 [CB300925, 4-[N-[7-Chloro-3-methyl-2-morpholinomethyl-4-oxo-3,4-dihydroquinazolin-6-ylmethyl]-N-(prop-2-ynyl)amino]-N-(3-pyridylmethyl)benzamide] | 19000 nM | 2 ± 0.36 nM | > 145 °C | – | –
7 | C#CCN(Cc1cc2c(=O)n(CC(=O)OC)c(CN3CCCCC3)nc2cc1Cl)c1ccc(C(=O)NCc2cccnc2)cc1 [CB300931, 4-[N-[7-Chloro-3-methoxycarbonylmethyl-4-oxo-2-piperidin-1-ylmethyl-3,4-dihydroquinazolin-6-ylmethyl]-N-(prop-2-ynyl)amino]-N-(3-pyridylmethyl)benzamide] | 23000 nM | 11 nM | 214 to 216 °C | 9.6 nM | –
8 | CN(c1ccc(C(=O)NCc2cccnc2)cc1)C1CCc2cc3nc(CN4CCCCC4)n(C)c(=O)c3cc21 (centres unmarked) [CB300943] | – | 28 nM | – | 26 nM | IC50 [1, 8]: > 500 nM
9 | C#CCN(Cc1cc2c(=O)n(C)c(CN3CCCCC3)nc2cc1Cl)c1ccc(C(=O)NCCCn2cncn2)cc1 [CB300942] | – | – | – | – | IC50 [1, 9]: 20000 nM; IC50 [2]: > 500 nM; IC50 [5]: > 500 nM
10 | C#CCN(Cc1cc2c(=O)n(C)c(CN3CCN(CCO)CC3)nc2cc1Cl)c1ccc(C(=O)NCc2cccnc2)cc1 [CB300930, 4-[N-[7-Chloro-3-methyl-2-(4-(2-hydroxyethyl)-piperazin-1-yl)methyl-4-oxo-3,4-dihydroquinazolin-6-ylmethyl]-N-(prop-2-ynyl)amino]-N-(3-pyridylmethyl)benzamide] | 22000 nM | – | 115 to 117 °C | – | IC50 [1, 10]: 19000 nM
11 | C#CCN(Cc1cc2c(=O)n(C)c(CN3CCN(CC)CC3)nc2cc1Cl)c1ccc(C(=O)NCc2cccnc2)cc1 [CB300927, 4-[N-[7-Chloro-3-methyl-2-(4-ethyl-piperazin-1-yl)methyl-4-oxo-3,4-dihydroquinazolin-6-ylmethyl]-N-(prop-2-ynyl)amino]-N-(3-yridylmethyl)benzamide] | – | – | – | – | IC50 [1, 9]: 22000 nM and 20000 nM; IC50 [2]: 0.78 nM and 0.8 nM; IC50 [4]: 0.78 nM and 0.76 nM
12 | C#CCN(Cc1cc2c(=O)n(C)c(CN(CC)CC)nc2cc1Cl)c1ccc(C(=O)NCc2cccnc2)cc1 [CB300922, 4-[N-[2-Diethylaminomethyl-7-chloro-3-methyl-4-oxo-3,4-dihydroquinazolin-6-ylmethyl]-N-(prop-2-ynyl)amino]-N-(3-pyridylmethyl)benzamide] | > 50000 nM | 0.71 ± 0.0076 nM | 180 to 182 °C | 0.42 nM | Inhibition of L1210 TS (A) IRP* (inverse relative potency) [3]: >2500; IC50 ([4]; Homo sapiens): 0.73 ± 0.05 nM
13 | C#CCN(Cc1cc2c(=O)n(C)c(CN3CCCC3)nc2cc1Cl)c1ccc(C(=O)NCc2cccnc2)cc1 [CB300926, 4-[N-[7-Chloro-3-methyl-2-pyrrolidinomethyl-4-oxo-3,4-dihydroquinazolin-6-ylmethyl]-N-(prop-2-ynyl)amino]-N-(3-pyridylmethyl)benzamide] | 24000 nM | 0.7 nM | – | – | IC50 [2]: 0.74 nM; IC50 ([4]; Homo sapiens): 0.76 nM
14 | C#CCN(Cc1cc2c(=O)n(CC(=O)N3CCCCC3)c(CN3CCCCC3)nc2cc1Cl)c1ccc(C(=O)NCc2cccnc2)cc1 [CB300938, 4-[N-[7-Chloro-4-oxo-2-(piperidin-1-yl)methyl-3-piperidinocarbonylmethyl-3,4-dihydroquinazolin-6-ylmethyl]-N-(prop-2-ynyl)amino]-N-(3-pyridylmethyl)benzamide] | > 50000 nM | 8.4 nM | 128 to 130 °C | 7.4 nM | –
15 | C#CCN(Cc1cc2c(=O)n(CC(=O)N(CC)CC)c(CN3CCCCC3)nc2cc1Cl)c1ccc(C(=O)NCc2cccnc2)cc1 [CB300941, 4-[N-[7-Chloro-3-diethylcarbamoylmethyl-4-oxo-2-(piperidin-1-yl)methyl-3,4-dihydroquinazolin-6-ylmethyl]-N-(prop-2-ynyl)amino]-N-(3-pyridylmethyl)benzamide] | 19000 nM | 9.4 nM | > 105 °C | 8.4 nM | –
16 | C#CCN(Cc1cc2c(=O)n(C)c(CN3CCN(C)CC3)nc2cc1Cl)c1ccc(C(=O)NCCCn2ccnc2)cc1 [CB300929, 4-[N-[7-Chloro-3-methyl-2-(4-methyl-piperazin-1-yl)methyl-4-oxo-3,4-dihydroquinazolin-6-ylmethyl]-N-(prop-2-ynyl)amino]-N-[3-(1H-imidazol-1-yl)propyl)benzamide] | 18000 nM | 2.1 nM | > 115 °C | 2.3 nM | IC50 [1, 10]: 14000 nM; IC50 [2]: 2.2 nM; IC50 [5]: 2.2 nM
17 | C#CCN(Cc1cc2c(=O)n(C)c(CN3CCN(C)CC3)nc2cc1Cl)c1ccc(C(=O)NCc2cccnc2)cc1 [CB300921, 4-[N-[7-Chloro-3-methyl-2-(4-methyl-piperazin-1-yl)methyl-4-oxo-3,4-dihydroquinazolin-6-ylmethyl]-N-(prop-2-ynyl)amino]-N-(3-pyridylmethyl)benzamide] | > 10000 nM | 0.65 ± 0.15 nM | – | – | IC50 [5]: 0.62 nM and 0.54 nM
18 | C#CCN(Cc1cc2c(=O)n(C)c(CN3CCC[C@H]3C(=O)OC)nc2cc1Cl)c1ccc(C(=O)NCc2cccnc2)cc1 [CB300928, 4-[N-[7-Chloro-3-methyl-2-(methyl-L-prolin-1-yl)methyl-4-oxo-3,4-dihydroquinazolin-6-ylmethyl]-N-(prop-2-ynyl)amino]-N-(3-pyridylmethyl)benzamide] | – | – | – | – | IC50 [1, 9]: 24000 nM and 19000 nM; IC50 [4]: 14 nM and 7.6 nM
